Measured values: patent US6638953B2, “Indole derivatives as 5-HT receptor antagonist” (SmithKline Beecham p.l.c., priority 1995, dated 2003)

Q: With `COc1cc2c(cc1C(F)(F)F)N(C(=O)Nc1cccc(-c3cccnc3C)c1)CC2` [Example 110] as the compound, how does the melting point read?
A: 179 to 180 °C

Q: Which melting point does the source give for `COc1cc2c(cc1C(F)(F)F)N(C(=O)Nc1cccc(-c3c(C)ccnc3C)c1)CC2` [Example 111] here?
A: 202 to 204 °C

Q: Which melting point does the source give for `COc1cc2c(cc1C(F)(F)F)N(C(=O)Nc1cccc(-c3ccc(C)nc3)c1)CC2` [Example 112] here?
A: 228 to 230 °C

Q: With `COc1cc2c(cc1C(F)(F)F)N(C(=O)Nc1cccc(-c3ccnc(C)n3)c1)CC2` [Example 113] as the compound, how does the melting point read?
A: > 220 °C

Q: Which melting point does the source give for `COc1cc2c(cc1C(F)(F)F)N(C(=O)Nc1cc(-c3cccnc3)cc(-c3cccnc3)c1)CC2` [Example 114] here?
A: 155 to 156 °C

Q: With `COc1cc2c(cc1C(F)(F)F)N(C(=O)Nc1cc(-c3ccncc3)cc(-c3cccnc3)c1)CC2` [Example 115] as the compound, how does the melting point read?
A: 153 to 154 °C

Q: With `COc1cc2c(cc1C(F)(F)F)N(C(=O)Nc1cc(F)cc(-c3ccc(C)nc3)c1)CC2` [Example 116] as the compound, how does the melting point read?
A: 213 to 215 °C

Q: For `COc1cc2c(cc1C(F)(F)F)N(C(=O)Nc1cccc(-c3cnc(C)cc3C)c1)CC2` [Example 117], which melting point is on record?
A: 161 to 162 °C

Q: For `COc1cc2c(cc1C(F)(F)F)N(C(=O)Nc1cc(F)cc(-c3cccnn3)c1)CC2` [Example 118], which melting point is on record?
A: 230 to 231 °C

Q: Which melting point does the source give for `COc1cc2c(cc1C(F)(F)F)N(C(=O)Nc1cccc(-c3cncnc3)c1)CC2` [Example 119] here?
A: 245 to 250 °C

Q: With `COc1cc2c(cc1C(F)(F)F)N(C(=O)Nc1cccc(-c3cnccn3)c1)CC2` [Example 120] as the compound, how does the melting point read?
A: 208 to 209 °C

Q: Which melting point does the source give for `COc1cc2c(cc1C(F)(F)F)N(C(=O)Nc1cccc(-c3ccc(C)nn3)c1)CC2` [Example 121] here?
A: 229 to 231 °C

Q: Which melting point does the source give for `COc1cc2c(cc1C(F)(F)F)N(C(=O)Nc1cc(OC(F)(F)F)cc(-c3cccnc3)c1)CC2` [Example 122] here?
A: 168 to 170 °C

Q: Which melting point does the source give for `COc1cc2c(cc1C(F)(F)F)N(C(=O)Nc1ccc(OC(F)(F)F)c(-c3cccnc3)c1)CC2` [Example 123] here?
A: 99 to 100 °C

Q: With `COc1cc2c(cc1C(F)(F)F)N(C(=O)Nc1cc(F)c(C)c(-c3cccnc3)c1)CC2` [Example 124] as the compound, how does the melting point read?
A: 244 to 247 °C

Q: For `COc1cc2c(cc1C(F)(F)F)N(C(=O)Nc1cc(F)cc(-c3cccnc3C)c1)CC2` [Example 125], which melting point is on record?
A: 204 to 205 °C

Q: With `COc1cc2c(cc1C(F)(F)F)N(C(=O)Nc1cc(F)cc(-c3cnccn3)c1)CC2` [Example 126] as the compound, how does the melting point read?
A: 230 to 231 °C

Q: Which melting point does the source give for `COc1cc2c(cc1C(F)(F)F)N(C(=O)Nc1cc(F)cc(-c3cnc(C)cc3C)c1)CC2` [Example 127] here?
A: 215 to 218 °C

Q: With `COc1cc2c(cc1C(F)(F)F)N(C(=O)Nc1cc(F)c(C)c(N3C=CC=NC3)c1)CC2` [Example 128] as the compound, how does the melting point read?
A: 188 to 189 °C

Q: With `Cc1cc2c(cc1Cl)N(C(=O)Nc1cc(F)c(C)c(-c3cccnc3)c1)CC2` [Example 129] as the compound, how does the melting point read?
A: 233 to 235 °C

Q: Which melting point does the source give for `COc1cc2c(cc1C(F)(F)F)N(C(=O)Nc1cncc(-c3cncnc3)c1)CC2` [Example 130] here?
A: 120 to 121 °C

Q: With `Cc1cc2c(cc1Cl)N(C(=O)Nc1cc(F)cc(-c3cnccn3)c1)CC2` [Example 131] as the compound, how does the melting point read?
A: 226 to 227 °C

Q: Which melting point does the source give for `Cc1cc2c(cc1Cl)N(C(=O)Nc1cc(F)cc(-c3cncnc3)c1)CC2` [Example 132] here?
A: 222 to 226 °C

Q: With `Cc1cc2c(cc1Cl)N(C(=O)Nc1cc(F)cc(-c3cccnc3C)c1)CC2` [Example 134] as the compound, how does the melting point read?
A: 205 to 206 °C

Q: Which melting point does the source give for `O=C(Nc1ccc(F)c(-c2cccnc2)c1)N1CCc2cc(Cl)c(Cl)cc21` [Example 135] here?
A: 200 to 202 °C

Q: With `Cc1cc2c(cc1Cl)N(C(=O)Nc1ccc(F)c(-c3cccnc3)c1)CC2` [Example 136] as the compound, how does the melting point read?
A: 185 to 186 °C

Q: For `COc1cc2c(cc1C(F)(F)F)N(C(=O)Nc1cccc(OCc3cccnc3)c1)CC2` [Example 137], which melting point is on record?
A: 202 to 204 °C

Q: With `COc1cc2c(cc1C(F)(F)F)N(C(=O)Nc1ccc(OCc3cccnc3)cc1)CC2` [Example 138] as the compound, how does the melting point read?
A: 215 to 217 °C

Q: For `COc1cc2c(cc1C(F)(F)F)N(C(=O)Nc1cccc(COc3cccnc3)c1)CC2` [Example 139], which melting point is on record?
A: 188 to 190 °C

Q: Which melting point does the source give for `COc1cc2c(cc1C(F)(F)F)N(C(=O)Nc1cnc(-c3cccnc3)c(C)c1)CC2` [Example 140] here?
A: 230 to 232 °C

Q: With `CSc1cc2c(cc1C(F)(F)F)N(C(=O)Nc1cnc(-c3cccnc3)c(Cl)c1)CC2` [Example 141] as the compound, how does the melting point read?
A: 245 to 250 °C

Q: Which melting point does the source give for `CSc1cc2c(cc1C(F)(F)F)N(C(=O)Nc1ccc(-c3cncc(Cl)c3)nc1)CC2` [Example 142] here?
A: 193 to 195 °C

Q: With `COc1cc2c(cc1C(F)(F)F)N(C(=O)Nc1ccc(Oc3cccnc3)cc1)CC2` [Example 143] as the compound, how does the melting point read?
A: 193 to 194 °C

Q: For `CSc1cc2c(cc1C(F)(F)F)N(C(=O)Nc1ccc(Sc3cccnc3)nc1)CC2` [Example 144], which melting point is on record?
A: 204 to 206 °C

Q: Which melting point does the source give for `CSc1cc2c(cc1C(F)(F)F)N(C(=O)Nc1ccc(Sc3ccncc3)nc1)CC2` [Example 145] here?
A: 214 to 216 °C

Q: With `COc1cc2c(cc1C(F)(F)F)N(C(=O)Nc1ccc(Sc3ccncc3)nc1)CC2` [Example 146] as the compound, how does the melting point read?
A: 204 to 206 °C

Q: With `CSc1cc2c(cc1C(F)(F)F)N(C(=O)Nc1ccc(Cc3ccncc3)cc1)CC2` [Example 147] as the compound, how does the melting point read?
A: 206 to 209 °C

Q: With `CSc1cc2c(cc1C(F)(F)F)N(C(=O)Nc1cccc(C(=O)NCc3cccnc3)c1)CC2` [Example 148] as the compound, how does the melting point read?
A: 210 to 215 °C

Q: For `CSc1cc2c(cc1C(F)(F)F)N(C(=O)Nc1cccc(C(=O)CCc3ccccn3)c1)CC2` [Example 149], which melting point is on record?
A: 145 to 146 °C

Q: For `CSc1cc2c(cc1C(F)(F)F)N(C(=O)Nc1cccc(C(O)CCc3ccccn3)c1)CC2` (stereo not shown) [Example 150], which melting point is on record?
A: 78 to 80 °C

Q: For `CSc1cc2c(cc1C(F)(F)F)N(C(=O)Nc1ccc(C(=O)NCc3ccncc3)cc1)CC2` [Example 151], which melting point is on record?
A: 138 to 140 °C

Q: With `CSc1cc2c(cc1C(F)(F)F)N(C(=O)Nc1cccc(C(=O)NCCc3ccccn3)c1)CC2` [Example 153] as the compound, how does the melting point read?
A: 92 to 94 °C

Q: With `CSc1cc2c(cc1C(F)(F)F)N(C(=O)Nc1cccc(C(=O)NCc3ccccn3)c1)CC2` [Example 154] as the compound, how does the melting point read?
A: 116 to 118 °C

Q: For `COc1cc2c(cc1C(F)(F)F)N(C(=O)Nc1ccc(Oc3ccccc3)nc1)CC2` [Example 155], which melting point is on record?
A: 202 to 203 °C

Q: Which melting point does the source give for `COc1cc2c(cc1C(F)(F)F)N(C(=O)Nc1ccc(Oc3c(C)ccnc3C)nc1)CC2` [Example 156] here?
A: 218 to 221 °C

Q: With `COc1cc2c(cc1C(F)(F)F)N(C(=O)Nc1ccc(Oc3ccccc3C)nc1)CC2` [Example 157] as the compound, how does the melting point read?
A: 226 to 228 °C

Q: Which melting point does the source give for `COc1cccc(Oc2ccc(NC(=O)N3CCc4cc(OC)c(C(F)(F)F)cc43)cn2)c1` [Example 158] here?
A: 188 to 189 °C

Q: For `COc1cc2c(cc1C(F)(F)F)N(C(=O)Nc1ccc(Oc3ccc(F)cc3C)nc1)CC2` [Example 159], which melting point is on record?
A: 208 to 209 °C

Q: For `COc1cc2c(cc1C(F)(F)F)N(C(=O)Nc1ccc(Oc3ccc(C)cc3C)nc1)CC2` [Example 160], which melting point is on record?
A: 236 to 238 °C

Q: Which melting point does the source give for `COc1cc2c(cc1C(F)(F)F)N(C(=O)Nc1ccc(Oc3cccnc3Cl)nc1)CC2` [Example 161] here?
A: 238 to 240 °C

Q: For `CCc1ccccc1Oc1ccc(NC(=O)N2CCc3cc(OC)c(C(F)(F)F)cc32)cn1` [Example 162], which melting point is on record?
A: 215 to 220 °C

Q: Which melting point does the source give for `COc1cc2c(cc1C(F)(F)F)N(C(=O)Nc1ccc(Oc3ccc(C(N)=O)cc3)nc1)CC2` [Example 163] here?
A: 245 to 248 °C
